Measurements: ChEMBL document CHEMBL1152549, “Synthesis and molecular modeling of some novel hexahydroindazole derivatives as potent monoamine oxidase inhibitors” (Bioorg Med Chem, 2009)
pIC50, pKi: −log10 of the molar value.

Assays:
Rattus norvegicus = organism: Rattus norvegicus; experiment: Selectivity index, ratio of Ki for rat MAOA to Ki for rat MAOB
[1] = biological target: T1, Amine oxidase [flavin-containing] B (Rattus norvegicus, UniProt P19643); experiment: Competitive inhibition of MAOB in rat liver homogenate by spectrophotometrically; format: tissue-based
T1 sequence (P19643 whole entry): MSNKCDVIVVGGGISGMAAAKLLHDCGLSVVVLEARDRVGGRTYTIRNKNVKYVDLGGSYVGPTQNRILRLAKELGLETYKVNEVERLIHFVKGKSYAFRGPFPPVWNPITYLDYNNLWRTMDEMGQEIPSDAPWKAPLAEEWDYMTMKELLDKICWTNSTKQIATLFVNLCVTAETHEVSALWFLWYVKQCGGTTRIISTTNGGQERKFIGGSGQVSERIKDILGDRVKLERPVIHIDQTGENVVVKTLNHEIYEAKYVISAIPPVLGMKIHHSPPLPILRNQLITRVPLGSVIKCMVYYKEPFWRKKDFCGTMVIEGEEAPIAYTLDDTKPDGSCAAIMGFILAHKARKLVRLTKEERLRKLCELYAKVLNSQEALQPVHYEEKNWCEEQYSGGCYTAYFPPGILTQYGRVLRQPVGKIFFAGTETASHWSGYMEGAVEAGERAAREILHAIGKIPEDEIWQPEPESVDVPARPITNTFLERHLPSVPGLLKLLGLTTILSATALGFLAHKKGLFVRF

[2] = biological target: T2, Amine oxidase [flavin-containing] A (Rattus norvegicus, UniProt P21396); experiment: Competitive inhibition of MAOA in rat liver homogenate by spectrophotometrically; format: tissue-based
T2 sequence (P21396 whole entry): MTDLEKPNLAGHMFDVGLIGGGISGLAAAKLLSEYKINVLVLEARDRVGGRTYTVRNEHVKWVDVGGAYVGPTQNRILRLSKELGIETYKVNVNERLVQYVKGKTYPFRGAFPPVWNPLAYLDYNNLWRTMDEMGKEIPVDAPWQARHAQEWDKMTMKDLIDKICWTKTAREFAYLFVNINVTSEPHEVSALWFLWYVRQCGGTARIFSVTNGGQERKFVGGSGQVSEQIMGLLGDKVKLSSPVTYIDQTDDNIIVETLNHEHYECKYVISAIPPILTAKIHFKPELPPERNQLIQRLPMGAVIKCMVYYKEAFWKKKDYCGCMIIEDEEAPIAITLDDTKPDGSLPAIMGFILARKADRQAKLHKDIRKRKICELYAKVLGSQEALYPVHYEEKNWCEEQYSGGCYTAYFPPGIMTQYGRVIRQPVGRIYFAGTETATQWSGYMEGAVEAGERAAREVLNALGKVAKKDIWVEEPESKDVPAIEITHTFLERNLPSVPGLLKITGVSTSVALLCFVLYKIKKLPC

Row | Ratio Ki (Rattus norvegicus) | pIC50 [1] | pKi [1] | pIC50 [2] | pKi [2] | SMILES
1 | 4060 | 5.86 | 9.02 | 4.10 | 5.41 | NC(=S)N1NC2=C(CCCC2)C1c1ccco1 (configuration not stated)
2 | 4.2 | 5.52 | 5.68 | 3.97 | 5.05 | CNC(=S)N1NC2=C(CCCC2)C1c1ccco1 (configuration not stated)
3 | 2.19 | 5.56 | 5.71 | 3.96 | 5.37 | CCNC(=S)N1NC2=C(CCCC2)C1c1ccco1 (configuration not stated)

More lines, now with the values behind:

Row | SMILES | Ratio Ki (Rattus norvegicus) | pIC50 [1] | pKi [1] | pIC50 [2] | pKi [2]
4 | S=C(Nc1ccccc1)N1NC2=C(CCCC2)C1c1cccs1 (configuration not stated) | 0.004 | 4.12 | 4.03 | 6.15 | 7.41
5 | O=C(NCCN1CCOCC1)c1ccc(Cl)cc1 [MOCLOBEMIDE] | – | 4.05 | 5.97 | – | –
6 | CNC(=S)N1NC2=C(CCCC2)C1c1cccs1 (configuration not stated) | 2.96 | 5.58 | 5.77 | 4.21 | 5.30
7 | NC(=S)N1NC2=C(CCCC2)C1c1cccs1 (configuration not stated) | 3320 | 5.90 | 9.05 | 4.02 | 5.52
8 | S=C(Nc1ccccc1)N1NC2=C(CCCC2)C1c1ccco1 (configuration not stated) | 0.0034 | 4.09 | 5.91 | 6.11 | 8.37
9 | CCNC(=S)N1NC2=C(CCCC2)C1c1cccs1 (configuration not stated) | 0.57 | 4.05 | 5.52 | 5.52 | 5.76
